Measured values published in publication PMC3544269 (2012).

How the values were obtained:
[1] = system: #3_7 (group 1) (DNA, aptamer) ATACCAGCTTATTCAATTGGTGGTAGGATGGGCTCGATCGAGGTCTTCAGTCGGCTCGGTTTAGTTTATGTTCTCCTGTAGATAGTAAGTGCAATCT; experiment: fluorescent aptamer release from capture-oligo magnetic beads; conditions: 100 mM NaCl, 5 mM KCl, 2 mM MgCl2, 1 mM CaCl2; 20 mM Tris-HCl pH 7.6, 21 °C; capture oligo i-ODN2Sp; 1 mM compound; threshold 1 pmol eluted
[2] = system: #13_83 (group 3 representative) (DNA, aptamer) ATACCAGCTTATTCAATTGGGGAGATCTTGAGGCTCGATCGATAGTAGCTGTGACAGTCTACGTTTTATGGTATGCGGGTAGATAGTAAGTGCAATCT; experiment: as above; conditions: 100 mM NaCl, 5 mM KCl, 2 mM MgCl2, 1 mM CaCl2; 20 mM Tris-HCl pH 7.6, 21 °C; capture oligo i-ODN2Sp; 1 mM compound; threshold 1 pmol eluted
[3] = system: #3_18 (group 7) (DNA, aptamer) ATACCAGCTTATTCAATTAGCATGGTGCTGAGGCTTGATCTGGAGGTCGTGAACGAAAATTGGTCGTTTAGTTGGCTCGTAGATAGTAAGTGCAATCT; experiment: as above; conditions: 100 mM NaCl, 5 mM KCl, 2 mM MgCl2, 1 mM CaCl2; 20 mM Tris-HCl pH 7.6, 21 °C; capture oligo i-ODN2Sp; 1 mM compound; threshold 1 pmol eluted
[4] = system: #3_7 (group 1) (DNA, aptamer) ATACCAGCTTATTCAATTGGTGGTAGGATGGGCTCGATCGAGGTCTTCAGTCGGCTCGGTTTAGTTTATGTTCTCCTGTAGATAGTAAGTGCAATCT; experiment: fluorescent aptamer release from capture-oligo magnetic beads, one-site fit; conditions: 100 mM NaCl, 5 mM KCl, 2 mM MgCl2, 1 mM CaCl2; 20 mM Tris-HCl pH 7.6, 21 °C; capture oligo i-ODN2Sp displaced; apparent; kanamycin A 0-1.5 mM

Row | binding [1] | binding [2] | binding [3] | KD [4] | Compound
1 | no | no | no |  | CC(C)NCC(O)c1ccc(NS(C)(=O)=O)cc1 (stereo not drawn)
2 | no | no | no |  | Cc1cc(NS(=O)(=O)c2ccc(N)cc2)no1
3 | no | no | no |  | NC(=O)NS(=O)(=O)c1ccc(N)cc1
4 |  | no | yes | 24 µM | NC[C@H]1O[C@H](O[C@H]2[C@H](O)[C@@H](O[C@H]3O[C@H](CO)[C@@H](O)[C@H](N)[C@H]3O)[C@H](N)C[C@@H]2N)[C@H](O)[C@@H](O)[C@@H]1O
